In US6093744A, “N-acyl sulfamic acid esters useful as hypocholesterolemic agents” (Warner-Lambert Company, priority 1998, dated 2000):
Counter-ions that a name gives are not always drawn.

Tests used:
Plasma TC = test: in vivo screen designated APCC (high fat, high cholesterol diet, plasma cholesterol); parameters: species or system male Sprague-Dawley rats; conditions: Rattus norvegicus, rats, PCC diet with 0.5% cholic acid overnight, vehicle CMC/Tween
Text: In one in vivo screen designated APCC, male Sprague-Dawley rats (200 to 225 g) were randomly divided into treatment groups and dosed at 4 PM with either vehicle (CMC/Tween) or suspensions of compounds in vehicle. The normal chow diet was then replaced with a high fat, high cholesterol diet (designated PCC) containing 0.5% cholic acid. The rats consumed this diet ad libitum during the night and were sacrificed at 8 AM to obtain blood samples for cholesterol analysis using standard procedures. Statistical differences between mean cholesterol values for the same vehicle were determined using analysis of variance followed by Fisher's least significant test.

[1] = target: T1, acyl-CoA: cholesterol acyltransferase (ACAT) (Rattus norvegicus, UniProt Q7TQM4); test: In vitro inhibition of acylation of cholesterol by oleic acid (LAI), rat liver microsomes; format: biochemical; conditions: radiolabeled oleic acid
T1 construct: tissue preparation containing rat liver microsomes; from tissue; host or cells: rat liver microsomes
T1 sequence (Q7TQM4 1-524): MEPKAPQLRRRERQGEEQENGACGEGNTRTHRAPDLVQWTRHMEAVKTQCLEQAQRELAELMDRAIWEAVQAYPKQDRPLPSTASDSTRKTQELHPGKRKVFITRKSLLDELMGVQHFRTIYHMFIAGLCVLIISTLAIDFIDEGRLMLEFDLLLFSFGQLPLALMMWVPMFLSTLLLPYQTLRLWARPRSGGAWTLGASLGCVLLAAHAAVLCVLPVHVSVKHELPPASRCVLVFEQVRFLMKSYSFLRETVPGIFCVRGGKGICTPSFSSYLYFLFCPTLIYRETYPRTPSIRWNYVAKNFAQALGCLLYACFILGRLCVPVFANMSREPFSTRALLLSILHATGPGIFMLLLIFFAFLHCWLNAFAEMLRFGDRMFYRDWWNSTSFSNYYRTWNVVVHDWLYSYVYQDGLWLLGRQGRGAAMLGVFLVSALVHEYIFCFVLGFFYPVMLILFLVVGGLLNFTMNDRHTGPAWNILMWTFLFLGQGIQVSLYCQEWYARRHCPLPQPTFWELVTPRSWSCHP
Method: The ability of representative compounds of the present invention to inhibit ACAT was measured using an in vitro test more fully described in Field F J, Salone R G, Biochemica et Biophysica 1982; 712:557-570. The test assesses the ability of a test compound to inhibit the acylation of cholesterol by oleic acid by measuring the amount of radiolabeled cholesterol oleate formed from radiolabeled oleic acid in a tissue preparation containing rat liver microsomes.

| IC50 [1] [µM] | Structure (SMILES) | change in vivo at 1 mg/kg (Plasma TC; dose 1 mg/kg) [%] | change in vivo at 10 mg/kg (Plasma TC) [%] | change in vivo at 30 mg/kg (Plasma TC) [%] |
| --- | --- | --- | --- | --- |
| 19 | CCOC(=O)CCCCCc1cc(C(C)C)c(OS(=O)(=O)NC(=O)Cc2c(C(C)C)cc(C(C)C)cc2C(C)C)c(C(C)C)c1 [Example 36, 6-(3,5-Diisopropyl-4-{[(2,4,6-triisopropyl-phenyl)-acetyl]sulfamoyloxy}-phenyl)-hexanoic acid ethyl ester] | – | -17 | – |
| 43.2 | CC(C)c1cc(C(C)C)c(CC(=O)NS(=O)(=O)Oc2c(C(C)C)cc(C=O)cc2C(C)C)c(C(C)C)c1 [Example 20, [(2,4,6-Triisopropyl-phenyl)-acetyl]-sulfamic acid 4-formyl-2,6-diisopropyl-phenyl ester] | – | -44 | – |
| > 50 | CC(C)c1cc(C(C)C)c(CC(=O)NS(=O)(=O)Oc2c(C(C)C)cc(NC(=O)C(C)(C)N)cc2C(C)C)c(C(C)C)c1 [Example 13, [(2,4,6-Triisopropyl-phenyl)-acetyl]-sulfamic acid 4-(2-amino-2-methyl-propionylamino)-2,6-diisopropyl-phenyl ester] | – | -8 | – |
| 38.5 | CC(C)c1cc(C(C)C)c(CC(=O)NS(=O)(=O)Oc2c(C(C)C)cc(CO)cc2C(C)C)c(C(C)C)c1 [Example 25, [(2,4,6-Triisopropyl-phenyl)-acetyl]-sulfamic acid 4-hydroxymethyl-2,6-diisopropyl-phenyl ester] | – | -54 | – |
| 45 | CC(C)c1cc(C(C)C)c(CC(=O)NS(=O)(=O)Oc2c(C(C)C)cc(NS(C)(=O)=O)cc2C(C)C)c(C(C)C)c1 [Example 34, [(2,4,6-Triisopropyl-phenyl)-acetyl]-sulfamic acid 2,6-diisopropyl-4methanesulfonylamino-phenyl ester] | – | -13 | – |
| > 50 | CC(C)c1cc(C(C)C)c(CC(=O)NS(=O)(=O)Oc2c(C(C)C)cc(NC(=O)NCCC(=O)O)cc2C(C)C)c(C(C)C)c1 [Example 8] | – | -15 | – |
| > 50 | CC(C)c1cc(C(C)C)c(CC(=O)NS(=O)(=O)Oc2c(C(C)C)cc(NC(=O)[C@@H](C)N)cc2C(C)C)c(C(C)C)c1 [Example 11, (D)-[(2,4,6-Triisopropyl-phenyl)-acetyl]-sulfamic acid 4-(2-amino-propionylamino)-2,6-diisopropyl-phenyl ester trifluoroacetate(1:1) (salt)] | – | -19 | – |
| > 50 | CC(C)c1cc(C(C)C)c(CC(=O)NS(=O)(=O)Oc2c(C(C)C)cc(OCCCN)cc2C(C)C)c(C(C)C)c1 [Example 16, [(2,4,6-Triisopropyl-phenyl)-acetyl]-sulfamic acid 4-(3-amino-propoxy)-2,6-diisopropyl-phenyl ester hydrochloride salt] | – | -47 | – |
| 49 | CCOC(=O)CCNC(=O)Nc1cc(C(C)C)c(OS(=O)(=O)NC(=O)Cc2c(C(C)C)cc(C(C)C)cc2C(C)C)c(C(C)C)c1 [Example 7] | – | – | -30 |
| 18 | CC(C)c1cc(C(C)C)c(CC(=O)NS(=O)(=O)Oc2c(C(C)C)cc(NC(=O)CNC(=O)OC(C)(C)C)cc2C(C)C)c(C(C)C)c1 [Example 3] | – | – | -40 |

| Structure (SMILES) | IC50 [1] [µM] | change in vivo at 1 mg/kg (Plasma TC; dose 1 mg/kg) [%] | change in vivo at 10 mg/kg (Plasma TC) [%] | change in vivo at 30 mg/kg (Plasma TC) [%] |
| --- | --- | --- | --- | --- |
| CC(C)c1cc(C(C)C)c(CC(=O)NS(=O)(=O)Oc2c(C(C)C)cc(NC(=O)[C@H](CCCCNC(=O)OC(C)(C)C)NC(=O)OC(C)(C)C)cc2C(C)C)c(C(C)C)c1 [Example 1, (S)-[5-tert-Butoxycarbonylamino-5-(3,5-diisopropyl-4-{[(2,4,6-triisopropyl-phenyl)-acetyl]-sulfamoyloxy}-phenylcarbanoyl)-pentyl]-carbamic acid tert-butyl ester] | 23 | 7 | – | – |
